Source: patent publication US10294202B2, “Pyrrolidinones as herbicides” (FMC Corporation, priority 2013, dated 2019)

Experiments:
crabgrass, large = test: Test C pre-/postemergence herbicide test; assay type: in vivo, Digitaria sanguinalis
In short: (§1)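 Two application timings ran in parallel with identically formulated test chemicals (non-phytotoxic solvent, surfactant included): spray on seeded loam–sand soil, and spray on emerged plants 2 to 18 cm high. Evaluation at 13 to 15 days compared each species with controls, rated from 0 up to 100.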

corn = test: Test C pre-/postemergence herbicide test; assay type: in vivo, Zea mays
In short: as §1

ryegrass, Italian = test: Test C pre-/postemergence herbicide test; assay type: in vivo, Lolium multiflorum
In short: as §1

soybean = test: Test C pre-/postemergence herbicide test; assay type: in vivo, Glycine max
In short: as §1

galium = test: Test C pre-/postemergence herbicide test; assay type: in vivo, Galium aparine
In short: as §1

wheat = test: Test A pre-/postemergence herbicide test; assay type: in vivo, Triticum aestivum; settings: Postemergence; for Plant response rating, Wheat: 125 g ai/ha, 0 to 100 scale, 0 is no effect, 100 is complete control; for Wheat plant response rating (0 to 100 scale, 0 is no effect, 100 is complete control): 500 g ai/ha
In short: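 Directed soil spray to seeded pots (preemergence) or spray onto one- to two-leaf seedlings 2–10 cm tall (postemergence); loam/sand substrate throughout. Evaluated visually after about 10 days against untreated plants, 0 = no effect, 100 = complete control.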

oilseed rape = test: Test C pre-/postemergence herbicide test; assay type: in vivo, Brassica napus
In short: as §1

ragweed = test: Test C pre-/postemergence herbicide test; assay type: in vivo, Ambrosia elatior
In short: as §1

johnsongrass = test: Test C pre-/postemergence herbicide test; assay type: in vivo, Sorghum halepense
In short: as §1

waterhemp = test: Test C pre-/postemergence herbicide test; assay type: in vivo, Amaranthus rudis
In short: as §1

blackgrass = test: Test C pre-/postemergence herbicide test; assay type: in vivo, Alopecurus myosuroides; settings: for Blackgrass plant response rating: scale 0 to 100, 0 is no effect and 100 is complete control
In short: as §1

oat, wild = test: Test C pre-/postemergence herbicide test; assay type: in vivo, Avena fatua; settings: Postemergence
In short: as §1

[1] = Postemergence, 31 g ai/ha, scale 0 to 100 (0 no effect, 100 complete control)
[2] = Postemergence, 62 g ai/ha, scale 0 (no effect) to 100 (complete control)
[3] = Postemergence, 125 g ai/ha, scale 0 to 100 (0 no effect, 100 complete control)
[4] = Postemergence, 250 g ai/ha, scale 0 to 100 (0 no effect, 100 complete control)
[5] = Preemergence, 31 g ai/ha, scale 0 to 100, 0 is no effect and 100 is complete control
[6] = Preemergence, 62 g ai/ha, scale 0 to 100 (0 no effect, 100 complete control)
[7] = Preemergence, 125 g ai/ha, scale 0 to 100 (0 no effect, 100 complete control)
[8] = Preemergence, 62 g ai/ha, scale 0 to 100
[9] = 31 g ai/ha, scale 0 to 100 (0 no effect, 100 complete control)
[10] = 62 g ai/ha, scale 0 (no effect) to 100 (complete control)
[11] = 125 g ai/ha, scale 0 to 100 (0 no effect, 100 complete control)
[12] = 250 g ai/ha, scale 0 to 100 (0 no effect, 100 complete control)

Structure (SMILES): O=C1NC[C@H](c2cccc(C(F)(F)F)c2)[C@H]1C(=O)Nc1cccc(F)c1F [Compound 206]
- Plant response rating, Crabgrass, Large (crabgrass, large; [1]): 45
- Plant response rating, Crabgrass, Large (crabgrass, large; [2]): 50
- Plant response rating, Crabgrass, Large (crabgrass, large; [3]): 70
- Plant response rating, Crabgrass, Large (crabgrass, large; [4]): 80
- Crabgrass, Large plant response rating (crabgrass, large; [5]): 90
- Crabgrass, Large plant response rating (crabgrass, large; [6]): 90
- Plant response rating, Crabgrass, Large (crabgrass, large; [7]): 95
- Plant response rating (scale of 0 to 100), Crabgrass, Large (crabgrass, large; Preemergence, 250 g ai/ha): 95
- Plant response rating, Corn (corn; [1]): 0
- Plant response rating, Corn (corn; [2]): 0
- Plant response rating, Corn (corn; [3]): 30
- Plant response rating, Corn (corn; [4]): 50
- Corn plant response rating (corn; [5]): 30
- Corn plant response rating (corn; [6]): 60
- Plant response rating, Corn (corn; [7]): 65
- Plant response rating (scale of 0 to 100), Corn (corn; Preemergence, 250 g ai/ha): 60
- Plant response rating, Ryegrass, Italian (ryegrass, Italian; [1]): 0
- Plant response rating, Ryegrass, Italian (ryegrass, Italian; [2]): 0
- Plant response rating, Ryegrass, Italian (ryegrass, Italian; [3]): 10
- Plant response rating, Ryegrass, Italian (ryegrass, Italian; [4]): 35
- Ryegrass, Italian plant response rating (ryegrass, Italian; [5]): 30
- Ryegrass, Italian plant response rating (ryegrass, Italian; [6]): 40
- Plant response rating, Ryegrass, Italian (ryegrass, Italian; [7]): 45
- Plant response rating (scale of 0 to 100), Ryegrass, Italian (ryegrass, Italian; Preemergence, 250 g ai/ha): 20
- Plant response rating, Soybean (soybean; [1]): 5
- Plant response rating, Soybean (soybean; [2]): 5
- Plant response rating, Soybean (soybean; [3]): 5
- Plant response rating, Soybean (soybean; [4]): 5
- Soybean plant response rating (soybean; [5]): 0
- Soybean plant response rating (soybean; [6]): 0
- Plant response rating, Soybean (soybean; [7]): 0
- Plant response rating (scale of 0 to 100), Soybean (soybean; Preemergence, 250 g ai/ha): 0
- Plant response rating, Galium (galium; [1]): 60
- Plant response rating, Galium (galium; [2]): 75
- Plant response rating, Galium (galium; [3]): 75
- Plant response rating, Galium (galium; [4]): 75
- Galium plant response rating (galium; [5]): 20
- Galium plant response rating (galium; [6]): 70
- Plant response rating, Galium (galium; [7]): 70
- Plant response rating (scale of 0 to 100), Galium (galium; Preemergence, 250 g ai/ha): 85
- Plant response rating, Wheat (wheat): 70
- Wheat plant response rating (0 to 100 scale, 0 is no effect, 100 is complete control) (wheat): 80
- Plant response rating, Oilseed Rape (oilseed rape; [1]): 0
- Plant response rating, Oilseed Rape (oilseed rape; [2]): 30
- Plant response rating, Oilseed Rape (oilseed rape; [3]): 50
- Plant response rating, Oilseed Rape (oilseed rape; [4]): 55
- Oilseed Rape plant response rating (oilseed rape; [5]): 5
- Oilseed Rape plant response rating (oilseed rape; [6]): 70
- Plant response rating, Oilseed Rape (oilseed rape; [7]): 75
- Plant response rating (scale of 0 to 100), Oilseed Rape (oilseed rape; Preemergence, 250 g ai/ha): 90
- Plant response rating, Ragweed (ragweed; [1]): 5
- Plant response rating, Ragweed (ragweed; [2]): 0
- Plant response rating, Ragweed (ragweed; [3]): 25
- Plant response rating, Ragweed (ragweed; [4]): 5
- Ragweed plant response rating (ragweed; [5]): 80
- Ragweed plant response rating (ragweed; [6]): 10
- Plant response rating, Ragweed (ragweed; [7]): 70
- Plant response rating (scale of 0 to 100), Ragweed (ragweed; Preemergence, 250 g ai/ha): 98
- Plant response rating, Johnsongrass (johnsongrass; [1]): 0
- Plant response rating, Johnsongrass (johnsongrass; [2]): 0
- Plant response rating, Johnsongrass (johnsongrass; [3]): 0
- Plant response rating, Johnsongrass (johnsongrass; [4]): 35
- Johnsongrass plant response rating (johnsongrass; [5]): 25
- Johnsongrass plant response rating (johnsongrass; [6]): 65
- Plant response rating, Johnsongrass (johnsongrass; [7]): 85
- Plant response rating (scale of 0 to 100), Johnsongrass (johnsongrass; Preemergence, 250 g ai/ha): 85
- Plant response rating, Waterhemp (waterhemp; [1]): 0
- Plant response rating, Waterhemp (waterhemp; [2]): 0
- Plant response rating, Waterhemp (waterhemp; [3]): 35
- Plant response rating, Waterhemp (waterhemp; [4]): 30
- Waterhemp plant response rating (waterhemp; [5]): 70
- Waterhemp plant response rating (waterhemp; [6]): 100
- Plant response rating, Waterhemp (waterhemp; [7]): 100
- Plant response rating (scale of 0 to 100), Waterhemp (waterhemp; Preemergence, 250 g ai/ha): 100
- Plant response rating, Blackgrass (blackgrass; [1]): 0
- Plant response rating, Blackgrass (blackgrass; [2]): 0
- Plant response rating, Blackgrass (blackgrass; [3]): 40
- Plant response rating, Blackgrass (blackgrass; [4]): 60
- Blackgrass plant response rating (blackgrass; Preemergence, 31 g ai/ha): 85
- Plant response rating, Blackgrass (blackgrass; [8]): 90
- Plant response rating, Blackgrass (blackgrass; [7]): 90
- Plant response rating (scale of 0 to 100), Blackgrass (blackgrass; Preemergence, 250 g ai/ha): 90
- Plant response rating, Oat, Wild (oat, wild; [9]): 0
- Plant response rating, Oat, Wild (oat, wild; [10]): 5
- Plant response rating, Oat, Wild (oat, wild; [11]): 45
- Plant response rating, Oat, Wild (oat, wild; [12]): 50

Structure (SMILES): O=C1NCC(c2cccc(OC(F)F)c2)C1C(=O)Nc1cccc(F)c1F (stereo not shown) [Compound 224]
- Plant response rating, Crabgrass, Large (crabgrass, large; [1]): 0
- Plant response rating, Crabgrass, Large (crabgrass, large; [2]): 35
- Plant response rating, Crabgrass, Large (crabgrass, large; [3]): 55
- Plant response rating, Crabgrass, Large (crabgrass, large; [4]): 75
- Crabgrass, Large plant response rating (crabgrass, large; [5]): 90
- Crabgrass, Large plant response rating (crabgrass, large; [6]): 90
- Plant response rating, Crabgrass, Large (crabgrass, large; [7]): 90
- Plant response rating (scale of 0 to 100), Crabgrass, Large (crabgrass, large; Preemergence, 250 g ai/ha): 100
- Plant response rating, Corn (corn; [1]): 0
- Plant response rating, Corn (corn; [2]): 0
- Plant response rating, Corn (corn; [3]): 10
- Plant response rating, Corn (corn; [4]): 10
- Corn plant response rating (corn; [5]): 10
- Corn plant response rating (corn; [6]): 0
- Plant response rating, Corn (corn; [7]): 85
- Plant response rating (scale of 0 to 100), Corn (corn; Preemergence, 250 g ai/ha): 85
- Plant response rating, Ryegrass, Italian (ryegrass, Italian; [1]): 0
- Plant response rating, Ryegrass, Italian (ryegrass, Italian; [2]): 0
- Plant response rating, Ryegrass, Italian (ryegrass, Italian; [3]): 5
- Plant response rating, Ryegrass, Italian (ryegrass, Italian; [4]): 5
- Ryegrass, Italian plant response rating (ryegrass, Italian; [5]): 0
- Ryegrass, Italian plant response rating (ryegrass, Italian; [6]): 0
- Plant response rating, Ryegrass, Italian (ryegrass, Italian; [7]): 0
- Plant response rating (scale of 0 to 100), Ryegrass, Italian (ryegrass, Italian; Preemergence, 250 g ai/ha): 15
- Plant response rating, Soybean (soybean; [1]): 0
- Plant response rating, Soybean (soybean; [2]): 10
- Plant response rating, Soybean (soybean; [3]): 5
- Plant response rating, Soybean (soybean; [4]): 5
- Soybean plant response rating (soybean; [5]): 0
- Soybean plant response rating (soybean; [6]): 100
- Plant response rating, Soybean (soybean; [7]): 0
- Plant response rating (scale of 0 to 100), Soybean (soybean; Preemergence, 250 g ai/ha): 5
- Plant response rating, Galium (galium; [1]): 5
- Plant response rating, Galium (galium; [2]): 45
- Plant response rating, Galium (galium; [3]): 60
- Plant response rating, Galium (galium; [4]): 85
- Galium plant response rating (galium; [5]): 0
- Galium plant response rating (galium; [6]): 40
- Plant response rating, Galium (galium; [7]): 85
- Plant response rating (scale of 0 to 100), Galium (galium; Preemergence, 250 g ai/ha): 85
- Plant response rating, Wheat (wheat): 50
- Wheat plant response rating (0 to 100 scale, 0 is no effect, 100 is complete control) (wheat): 60
- Plant response rating, Oilseed Rape (oilseed rape; [1]): 0
- Plant response rating, Oilseed Rape (oilseed rape; [2]): 15
- Plant response rating, Oilseed Rape (oilseed rape; [3]): 20
- Plant response rating, Oilseed Rape (oilseed rape; [4]): 5
- Oilseed Rape plant response rating (oilseed rape; [5]): 0
- Oilseed Rape plant response rating (oilseed rape; [6]): 5
- Plant response rating, Oilseed Rape (oilseed rape; [7]): 70
- Plant response rating (scale of 0 to 100), Oilseed Rape (oilseed rape; Preemergence, 250 g ai/ha): 85
- Plant response rating, Ragweed (ragweed; [1]): 20
- Plant response rating, Ragweed (ragweed; [2]): 65
- Plant response rating, Ragweed (ragweed; [3]): 45
- Plant response rating, Ragweed (ragweed; [4]): 80
- Ragweed plant response rating (ragweed; [5]): 10
- Ragweed plant response rating (ragweed; [6]): 40
- Plant response rating, Ragweed (ragweed; [7]): 100
- Plant response rating (scale of 0 to 100), Ragweed (ragweed; Preemergence, 250 g ai/ha): 100
- Plant response rating, Johnsongrass (johnsongrass; [1]): 0
- Plant response rating, Johnsongrass (johnsongrass; [2]): 0
- Plant response rating, Johnsongrass (johnsongrass; [3]): 15
- Plant response rating, Johnsongrass (johnsongrass; [4]): 25
- Johnsongrass plant response rating (johnsongrass; [5]): 0
- Johnsongrass plant response rating (johnsongrass; [6]): 35
- Plant response rating, Johnsongrass (johnsongrass; [7]): 75
- Plant response rating (scale of 0 to 100), Johnsongrass (johnsongrass; Preemergence, 250 g ai/ha): 85
- Plant response rating, Waterhemp (waterhemp; [1]): 25
- Plant response rating, Waterhemp (waterhemp; [2]): 35
- Plant response rating, Waterhemp (waterhemp; [3]): 30
- Plant response rating, Waterhemp (waterhemp; [4]): 30
- Waterhemp plant response rating (waterhemp; [5]): 75
- Waterhemp plant response rating (waterhemp; [6]): 5
- Plant response rating, Waterhemp (waterhemp; [7]): 70
- Plant response rating (scale of 0 to 100), Waterhemp (waterhemp; Preemergence, 250 g ai/ha): 80
- Plant response rating, Blackgrass (blackgrass; [1]): 0
- Plant response rating, Blackgrass (blackgrass; [2]): 0
- Plant response rating, Blackgrass (blackgrass; [3]): 0
- Plant response rating, Blackgrass (blackgrass; [4]): 0
- Blackgrass plant response rating (blackgrass; Preemergence, 31 g ai/ha): 0
- Plant response rating, Blackgrass (blackgrass; [8]): 65
- Plant response rating, Blackgrass (blackgrass; [7]): 70
- Plant response rating (scale of 0 to 100), Blackgrass (blackgrass; Preemergence, 250 g ai/ha): 85
- Plant response rating, Oat, Wild (oat, wild; [9]): 0
- Plant response rating, Oat, Wild (oat, wild; [10]): 0
- Plant response rating, Oat, Wild (oat, wild; [11]): 5
- Plant response rating, Oat, Wild (oat, wild; [12]): 15
